In article PMC6213020, “Identification of a Novel PPAR-γ Agonist through a Scaffold Tuning Approach” (International Journal of Molecular Sciences, 2018):

What was measured:
PPAR-α [1] = target: T1, PPAR-α (Homo sapiens, UniProt Q07869); assay: cell-based PPAR transactivation (luciferase) assay, PPAR-α; conditions: 24 h; compounds 10 µM; relative to maximum activation with GW7647 (10 µM); PPAR-Luc in CV-1 cells; read-out: % max PPAR-α
T1 construct: host or cells: CV-1
T1 sequence (Q07869 1-468): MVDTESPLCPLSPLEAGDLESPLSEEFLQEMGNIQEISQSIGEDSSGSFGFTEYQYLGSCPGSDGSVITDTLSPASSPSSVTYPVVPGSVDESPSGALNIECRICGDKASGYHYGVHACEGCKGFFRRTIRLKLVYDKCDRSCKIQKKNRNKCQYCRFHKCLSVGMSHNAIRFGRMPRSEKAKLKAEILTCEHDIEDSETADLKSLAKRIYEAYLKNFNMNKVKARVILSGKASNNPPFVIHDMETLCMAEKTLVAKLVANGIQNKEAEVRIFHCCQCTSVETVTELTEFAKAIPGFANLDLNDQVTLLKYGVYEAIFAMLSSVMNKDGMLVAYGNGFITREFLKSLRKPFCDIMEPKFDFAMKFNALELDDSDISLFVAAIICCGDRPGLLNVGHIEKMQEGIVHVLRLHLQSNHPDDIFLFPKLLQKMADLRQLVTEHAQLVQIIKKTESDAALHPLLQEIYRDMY
Experimental: (§1) The PPAR activities of the synthesized dichloroanilide-linked indole analogs were assessed using a standard cell-based transactivation assay in CV-1 cells. GW7647 [42], pioglitazone, and GW0742 [43] were used as positive controls for PPAR-α, -γ, and -δ, respectively. These three positive controls presented the maximum activation for each PPAR subtype. The activity of the compounds was presented as the activation percentage (%) relative to the maximum values of the positive controls at the indicated concentrations.
(§2) Transient transfection and luciferase assay was carried out. CV-1 cells were seeded in 48-well plates at a density of 1.5 × 10^5 cells/well in Dulbecco’s modified Eagle’s medium (DMEM) with containing 10% fetal bovine serum (FBS). The cells were transiently transfected with plasmid mixtures containing PPAR-α/γ expression vector and tk-PPRE-luciferase (Luc) vector for 6 h and then treated with the samples for 24 h. HEK293t cells were seeded in a 60-mm dish at a density of 1.5 × 10^6 cells/dish. After transfection with the plasmid mixtures containing PPAR-δ expression vector and Luc vector for 6 h, the cells were transferred to a 96-well plate and treated with the samples. To normalize the transfection efficiency, a β-galactosidase plasmid was cotransfected. The luciferase activity in the cell lysates was measured using a luciferase assay system (Promega Corp., Madison, WI, USA), and the β-galactosidase activity was determined by measuring the absorbance at 410 nm using an ELISA plate reader. The data were expressed as the relative luciferase activity divided by the β-galactosidase activity. All constructs were kindly gifted by Dr. Ronald M. Evans at The Salk Institute (La Jolla, CA, USA).

PPAR-δ [2] = target: T2, PPAR-δ (Homo sapiens, UniProt Q03181); assay: cell-based PPAR transactivation (luciferase) assay, PPAR-δ; conditions: compounds 10 µM; relative to maximum activation with GW0742 (10 μM); PPAR-Luc in HEK293t cells; read-out: % max PPAR-δ
T2 construct: host or cells: HEK293t
T2 sequence (Q03181 1-441): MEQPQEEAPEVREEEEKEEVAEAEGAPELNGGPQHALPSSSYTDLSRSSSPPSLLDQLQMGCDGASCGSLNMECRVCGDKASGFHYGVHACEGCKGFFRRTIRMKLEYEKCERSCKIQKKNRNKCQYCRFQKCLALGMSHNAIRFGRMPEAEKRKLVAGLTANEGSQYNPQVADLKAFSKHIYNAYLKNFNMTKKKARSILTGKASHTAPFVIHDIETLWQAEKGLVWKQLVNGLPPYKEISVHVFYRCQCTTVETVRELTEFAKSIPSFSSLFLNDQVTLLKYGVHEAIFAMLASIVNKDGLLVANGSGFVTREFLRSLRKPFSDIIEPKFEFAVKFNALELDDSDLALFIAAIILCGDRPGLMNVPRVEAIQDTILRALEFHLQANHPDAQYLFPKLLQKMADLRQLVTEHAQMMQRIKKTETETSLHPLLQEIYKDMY
Experimental: as §1, §2

PPAR-α [3] = target: T3, PPAR-α (Homo sapiens, UniProt Q07869); assay: TR-FRET LanthaScreen PPAR coactivator recruit assay, PPAR-α (PGC1a peptide); type: biochemical
T3 construct: purchased Invitrogen / Thermo Fisher Scientific (assay service)
T3 sequence (Q07869 239-466 limits assumed): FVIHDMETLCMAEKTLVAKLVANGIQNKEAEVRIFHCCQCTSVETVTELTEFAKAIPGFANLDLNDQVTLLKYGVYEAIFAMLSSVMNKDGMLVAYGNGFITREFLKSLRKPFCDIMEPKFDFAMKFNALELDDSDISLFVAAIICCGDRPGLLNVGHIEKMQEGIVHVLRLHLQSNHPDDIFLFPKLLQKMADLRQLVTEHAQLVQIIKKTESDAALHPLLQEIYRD
Text: (§3) Binding of agonist to the PPAR LBD causes a conformational change around helix 12 in the LBD, resulting in higher affinity for the coactivator peptide. When the terbium label on the anti-GST antibody complexed with PPAR is excited at 340 nm, energy is transferred to the fluorescein label on the coactivator peptide and detected as emission at 520 nm. […] Based on the biology of the PPAR-coactivator peptide interaction, this ligand EC50 is a composite value representing the amount of ligand required to bind to receptor, effect a conformational change, and recruit coactivator peptide. Potency of compounds show similar order to their activity (Table 3). […] Ligands such as TZDs show little or no binding to PPAR-δ. Compound 11 and 15 have ortho or meta substituted benzoic acid as an acidic head group. Their acidic head groups might seem to be too large to fit within the narrow PPAR-δ pocket. In contrast, the compound 1 and 2 contains an acetic acid head group that complements the narrow PPAR-δ ligand binding. […] The potency and selectivity of compound 11 could be explained by harmonization of steric effect of acidic head group, length and rigidity of hydrophobic tail, and properly tuned aromatic linker system.
(§4) EC50 of compounds were determined by recruitment of transcriptional coactivators using the TR-FRET based Lanthascreen coactivator assays (Invitrogen, Carlsbad, CA, USA). Which was serviced by Thermo Fisher Scientific (Medicon, WI, USA) according to the LanthaScreen TR-FRET coregulator protocol and assay conditions. Coregulator peptide PGC1a, TRAP220/DRIP2 and C33 was used for the coactivator recruit assay of PPAR-α, -γ, and -δ, respectively.

PPAR-δ [4] = target: T4, PPAR-δ (Homo sapiens, UniProt Q03181); assay: TR-FRET LanthaScreen PPAR coactivator recruit assay, PPAR-δ (C33 peptide); type: biochemical
T4 construct: purchased Invitrogen / Thermo Fisher Scientific (assay service)
T4 sequence (Q03181 211-439 limits assumed): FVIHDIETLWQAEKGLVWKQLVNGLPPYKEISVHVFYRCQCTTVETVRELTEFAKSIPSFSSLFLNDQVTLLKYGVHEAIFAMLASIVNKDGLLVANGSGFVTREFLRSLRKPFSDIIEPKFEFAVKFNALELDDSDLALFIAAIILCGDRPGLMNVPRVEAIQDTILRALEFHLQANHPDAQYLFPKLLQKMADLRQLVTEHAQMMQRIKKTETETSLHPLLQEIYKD
Text: as §3, §4

| Compound | activation at 10 µM (PPAR-α [1]) | activation at 10 µM (PPAR-δ [2]) | EC50 (PPAR-α [3]) | EC50 (PPAR-δ [4]) |
| --- | --- | --- | --- | --- |
| O=C(COc1ccc2c(ccn2Cc2ccccc2C(=O)O)c1)Nc1ccc(Cl)cc1Cl [Compound 12, 2-((5-(2-((2,4-Dichlorophenyl)amino)-2-oxoethoxy)-1H-indol-1-yl)methyl)benzoic acid] | 105.1 ± 0.41% | 94.86 ± 0.2% | 3.87 µM | 32.6 µM |
| O=C(COc1ccc2ccn(Cc3ccccc3C(=O)O)c2c1)Nc1ccc(Cl)cc1Cl [Compound 13, 2-((6-(2-((2,4-Dichlorophenyl)amino)-2-oxoethoxy)-1H-indol-1-yl)methyl)benzoic acid] | 51.84 ± 0.25% | 86.7 ± 0.53% | 16.9 µM | > 100 µM |
| O=C(COc1ccc2ccn(Cc3cccc(C(=O)O)c3)c2c1)Nc1ccc(Cl)cc1Cl [Compound 15, 3-((6-(2-((2,4-Dichlorophenyl)amino)-2-oxoethoxy)-1H-indol-1-yl)methyl)benzoic acid] | 78.15 ± 0.04% | 86.09 ± 0.31% | > 100 µM | > 100 µM |
| O=C(COc1ccc2c(c1)c(Cc1ccccc1)cn2Cc1ccccc1C(=O)O)Nc1ccc(Cl)cc1Cl [Compound 18, 2-((3-Benzyl-5-(2-((2,4-dichlorophenyl)amino)-2-oxoethoxy)-1H-indol-1-yl)methyl)benzoic acid] | 23.79 ± 0.11% | 75.88 ± 0.35% | > 100 µM | 28.1 µM |
